Patent publication US8034926B2 (Abbott Laboratories, priority 2007, dated 2011)
“Also recorded” adds a separate entry of the source.

Experiments:
[1] = pharmacokinetics after a single intravenous dose in cynomolgus monkey; details: in vivo, 2.5 mg/kg
[2] = system: neointimal formation in porcine coronary arteries containing stents; assay: porcine coronary stent model, histomorphometry at 28 days; assay type: in vivo
From the text: The control stents are polymer-coated without drugs. This is important, for the polymer itself must not stimulate neointimal hyperplasia to a substantial degree. As the eluted drug disappears, an inflammatory response to the polymer could conceivably result in a late “catch-up phenomenon” where the restenosis process is not stopped, but instead slowed. This phenomenon would result in restenosis at late dates in human subjects.
Stems were implanted in two blood vessels in each pig. Pigs used in this model were generally 2-4 months old and weighed 30-40 kg. Two coronary stents were thus implanted in each pig by visually assessing a “normal” stent:artery ratio of 1.1-1.2.
Beginning on the day of the procedure, pigs were given oral aspirin (325 mg daily) and continued for the remainder of their course. General anesthesia was achieved by means of intramuscular injection followed by intravenous ketamine (30 mg/kg) and xylazine (3 mg/kg). Additional medication at the time of induction included atropine (1 mg) and flocillin (1 g) administered intramuscularly. During the stenting procedure, an intraarterial bolus of 10,000 units of heparin was administered.
Arterial access was obtained by cutdown on the right external carotid and placement of an 8F sheath. After the procedure, the animals were maintained on a normal diet without cholesterol or other special supplementation.
The BiodivYsio stent was used with nominal vessel target size of 3.0 mm. Two coronary arteries per pig were assigned at random to deployment of the stents. The stent was either a drug eluting stent (polymer plus drug stent) or a stent coated with a polymer only (polymer only stent). The stents were delivered by means of standard guide catheters and wires. The stent balloons were inflated to appropriate sizes for less than 30 seconds.
Each pig had one polymer only stent and one polymer plus drug stent placed in separate coronary arteries, so that each pig would have one stent for drug and one for control. A sample size of 20 pigs total was chosen to detect a projected difference in neointimal thickness of 0.2 mm with a standard deviation of 0.15 mm, at a power of 0.95 and […] 0.02.
Animals were euthanized at 28 days for histopathologic examination and quantification. Following removal of the heart from the perfusion pump system, the left atrial appendage was removed for access to the proximal coronary arteries. Coronary arterial segments with injuries were dissected free of the epicardium. Segments containing lesions were isolated, thereby allowing sufficient tissue to contain uninvolved blood vessel at either end. […]
The severity of vessel injury and the neointimal response were measured by calibrated digital microscopy. […]

[3] = release of drug from PC polymer-coated 316 L stainless steel coupons; assay type: physicochemical; details: PC polymer-coated 316 L coupon
From the text: Rubber septa from lids from HPLC vials were removed from the vials and placed into glass vials so that the “Teflon” side faced up. These septa served as supports for the test samples. The test samples were 316 L, stainless steel coupons that had been previously coated with a biocompatible polymer containing phosphorylcholine side groups (PC polymer). Coronary stents are commonly made of 316 L stainless steel and can be coated with the PC polymer to provide a depot site for loading drugs. The coated coupons, which serve to simulate stents, were placed onto the septa. By using a glass Hamilton Syringe, a solution of A-179578 and ethanol (10 μl) was applied to the surface of each coupon. The solution contained A-179578 (30.6 mg) dissolved in 100% ethanol (3.0 ml). The syringe was cleaned with ethanol between each application. The cap to the glass vial was placed on the vial loosely, thereby assuring proper ventilation. The coupon was allowed to dry for a minimum of 1.5 hours. Twelve (12) coupons were loaded in this way, six being used to determine the average amount of drug loaded onto the device and six being used to measure the time needed to release the drug from the devices.
The coupon was placed onto a 5210 Branson sonicator for one hour. The coupon was then removed from the solution, and the solution was assayed by HPLC.
The time release studies were performed by immersing and removing the individual coupons from fresh aliquots (10.0 ml) of 0.01 M phosphate buffer at a pH of 6.0 at each of the following time intervals; 5, 15, 30 and 60 minutes. For the remaining time points of 120, 180, 240, 300, 360 minutes, volumes of 5.0 ml of buffer were used. To facilitate mixing during the drug release phase, the samples were placed onto a Eberbach shaker set at low speed. All solution aliquots were assayed by HPLC after the testing of the last sample was completed.
The HPLC analysis was performed with a Hewlett Packard series 1100 instrument having the following settings: Injection Volume is 100 μl; Acquisition Time is 40 minutes; Flow Rate is 1.0 ml/min; Column Temperature is 40 degrees Celsius; Wavelength is 278 nm; Mobile Phase is 65% Acetonitrile/35% H20; and Column is YMC ODS-A S5 μm, 4.6×250 mm (Part No. Al2052546WT).

[4] = loading and release of drug from 15 mm BiodivYsio drug delivery stents; assay type: physicochemical; details: 15 mm BiodivYsio stent
Description: Twelve individual polymer-coated stents were placed on fixtures designed to hold the stent in a vertical position and the stents were immersed vertically in the drug solution for five minutes. The stents and fixtures were removed from the vials and excess drug solution was blotted away by contacting the stents with an absorbant material. The stents were then allowed to dry in air for 30 minutes in an inverted vertical position.
The stents were removed from the fixtures, and each stent was placed into 50/50 acetonitrile/phosphate buffer (pH 5.1, 2.0 ml) and sonicated for one hour. The stems were removed from the solution and solutions were assayed for concentration of drug, which allowed calculation of the amount of drug originally on the stents. This method was independently shown to remove at least 95% of the drug from the stent coating. On average, the stents contained 60 micrograms of drug±20 micrograms.
The drug-loaded stents were placed on the fixtures and placed into 0.01 M phosphate buffer (pH=6.0, 1.9 ml) in individual vials. These samples were placed onto an Eberbach shaker set at low speed to provide back-and-forth agitation. To avoid approaching drug saturation in the buffer, the stents were transferred periodically to fresh buffer vials at the following points: 15, 30, 45, 60, 120, 135, 150, 165, 180, 240, 390 minutes. The dissolution buffer vials were assayed by HPLC for the drug concentration at the end of the drug release period studied. The data, represented as % cumulative release of the drug as a function of time, is shown in tabular form below: […]

[5] = system: neointima formation in the coronary arteries of adult miniature swine; assay: swine safety and efficacy study of drug dosages on in-stent neointima formation; assay type: in vivo, Yucatan miniature swine
Description: The purpose of this example was to evaluate the safety and efficacy of different drug dosages on neointima formation. Drug was delivered from the BiodivYsio OC stent (15 mm) coated with AST-578. In-stent neointima formation was measured at […]; 3 days, 1 month, and 3 months in the coronary arteries of adult miniature swine. Forty (40) animals were studied at each time interval (10 animals per dose). Each animal received one drug-coated stent and one control stent. The control stent contained no drug.
Potential local tissue toxicity was assessed at all time intervals by examining histopathologic changes in the stented region, adjacent coronary segments, perivascular tissue, and subserved myocardium. The mortality, angiographic implant and restudy data, histomorphometry data, and stent site histopathology were studied.

[6] = porcine coronary arteries, 28 days

40-epi-N-[2′-pyridone]-rapamycin [Example 2-pyridone]
AUC [1]: 2.55 µg·h/mL

COC1CC2CCC(C)C(O)(O2)C(=O)C(=O)N2CCCCC2C(=O)OC(C(C)CC2CCC(n3cnnn3)C(OC)C2)CC(=O)C(C)C=C(C)C(O)C(OC)C(=O)C(C)CC(C)C=CC=CC=C1C (centres unmarked) [ABT-578, 42-(1-tetrazolyl)-rapamycin]
lumen area vs polymer only stent [2, 6]: greater lumen area
neointimal area vs polymer only stent [2, 6]: lower neointimal area
neointimal thickness vs polymer only stent [2, 6]: lower neointimal thickness
neointimal hyperplasia ([2]; stent with polymer in porcine coronary artery): reduction in neointimal hyperplasia
Percent Release ([3]; 0.01 M phosphate buffer pH 6.0, 0.00 min): 0.00%
Percent Release ([3]; 0.01 M phosphate buffer pH 6.0, 5.00 min): 1.87%
Percent Release ([3]; 0.01 M phosphate buffer pH 6.0, 15.00 min): 2.97%
Percent Release ([3]; 0.01 M phosphate buffer pH 6.0, 30.00 min): 3.24%
Percent Release ([3]; 0.01 M phosphate buffer pH 6.0, 60.00 min): 3.29%
Percent Release ([3]; 0.01 M phosphate buffer pH 6.0, 180.00 min): 4.36%
Percent Release ([3]; 0.01 M phosphate buffer pH 6.0, 240.00 min): 4.37%
Percent Release ([3]; 0.01 M phosphate buffer pH 6.0, 300.00 min): 6.34%
Percent Release ([3]; 0.01 M phosphate buffer pH 6.0, 360.00 min): 7.88%

CO[C@H]1C[C@@H]2CC[C@@H](C)[C@@](O)(O2)C(=O)C(=O)N2CCCC[C@H]2C(=O)O[C@H]([C@H](C)C[C@@H]2CC[C@H](n3cnnn3)[C@H](OC)C2)CC(=O)[C@H](C)/C=C(\C)[C@@H](O)[C@@H](OC)C(=O)[C@H](C)C[C@H](C)/C=C/C=C/C=C/1C [ABT-578, 42-(1-tetrazolyl)-rapamycin]
% Cumulative Release of Drug ([4]; 0.01 M phosphate buffer pH 6.0, 15 min): 0.3%
% Cumulative Release of Drug ([4]; 0.01 M phosphate buffer pH 6.0, 30 min): 1.1%
% Cumulative Release of Drug ([4]; 0.01 M phosphate buffer pH 6.0, 45 min): 2.1%
% Cumulative Release of Drug ([4]; 0.01 M phosphate buffer pH 6.0, 60 min): 3.2%
% Cumulative Release of Drug ([4]; 0.01 M phosphate buffer pH 6.0, 120 min): 4.3%
% Cumulative Release of Drug ([4]; 0.01 M phosphate buffer pH 6.0, 135 min): 5.9%
% Cumulative Release of Drug ([4]; 0.01 M phosphate buffer pH 6.0, 150 min): 6.3%
% Cumulative Release of Drug ([4]; 0.01 M phosphate buffer pH 6.0, 165 min): 6.8%
% Cumulative Release of Drug ([4]; 0.01 M phosphate buffer pH 6.0, 180 min): 7.4%
local coronary arterial wall toxicity: medial necrosis or stent malapposition ([5]; any dose group up to approximately 27 μg/mm stent length, any time interval): no local coronary arterial wall toxicity
histologic % stenosis vs control ([5]; one month, dose group 3): tendency towards decreased
absolute intima area vs control ([5]; one month, dose groups 3 and 4): trends for decreases
intima thickness vs control ([5]; one month, dose groups 3 and 4): trends for decreases
Intima area normalized to injury score vs control ([5]; one month, dose groups 3 and 4 (10 and 27 μg/mm)): significantly decreased
neointima formation in stented coronary arteries ([5]; one month, locally eluted from stent): significant inhibitory effect; also recorded: reduced in-stent neointima formation
extent of endothelial recovery over the stent struts ([5]; three days after implant, all dosages, scanning electron microscopy): did not appear retarded
persistent inhibitory effect on neointima ([5]; three months): weak tendency

COC1CC2CCC(C)C(O)(O2)C(=O)C(=O)N2CCCCC2C(=O)OC(C(C)CC2CCC(n3ccc(=O)cc3)C(OC)C2)CC(=O)C(C)C=C(C)C(O)C(OC)C(=O)C(C)CC(C)C=CC=CC=C1C (stereo not drawn) [Example 4-pyridone, 40-epi-N-[4′-pyridone]-rapamycin]
AUC [1]: 5.59 µg·h/mL
